Key:
olfactory receptor OR2L3 [1] = target: T1, olfactory receptor OR2L3 (Homo sapiens, UniProt Q8NG85); test: Luciferase reporter gene assay: effect of suppressing the response of OR2L3 to unpleasant odor-causing substance; format: cell-based; details: for Effect of suppressing the response of OR2L3 to indole: test substance mixed with indole, FIGS. 10 to 12; for Effect of suppressing the response of OR2L3 to skatole: test substance mixed with skatole, ratio of Fold Increase value, FIGS. 6 to 9
T1 construct: N-terminal 20 amino acid residues of bovine rhodopsin (Rho tag); expressed in transfected cells; host or cells: HEK293T cells, transient lipofection with the pME18S expression vector, an RTP1S vector and the luciferase reporter vectors
T1 sequence (Q8NG85 1-312): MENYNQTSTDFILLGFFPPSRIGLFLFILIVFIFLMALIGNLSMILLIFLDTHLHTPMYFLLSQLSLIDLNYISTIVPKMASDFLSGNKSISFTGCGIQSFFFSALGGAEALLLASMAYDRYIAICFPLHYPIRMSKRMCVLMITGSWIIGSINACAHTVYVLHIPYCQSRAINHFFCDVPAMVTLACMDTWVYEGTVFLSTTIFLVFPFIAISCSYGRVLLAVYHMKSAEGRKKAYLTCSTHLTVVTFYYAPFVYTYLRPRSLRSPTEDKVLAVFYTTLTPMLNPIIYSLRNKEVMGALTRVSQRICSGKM
Experimental: (§1) 0.05 μg of the human olfactory receptor gene expression vector, 0.01 μg of an RTP1S vector, 0.01 μg of a firefly luciferase vector pGL4.29 containing a cAMP-responsive sequence promoter (Promega), and 0.005 μg of a Renilla luciferase vector pGL4.74 containing a thymidine kinase promoter (Promega) were dissolved in 10 μL of Opti-MEM I (gibco) to obtain a gene solution (for one well). 100 μL of HEK293T cells were seeded in each well of a 96-well plate (Biocoat manufactured by Corning) so as to reach confluency after 24 hours. According to the directions for use of Lipofectamine 3000, by the lipofection method, the gene solution was added to each well to perform gene transfer to cells, and culturing was performed under 5% carbon dioxide atmosphere at 37° C. for 24 hours.
After removing the culture medium, 50 μL of CD293 medium (gibco) (20 μM L-glutamine added) including measured concentration of an aroma compound as a sample was added to each well, and stimulation was performed for 3 hours. After that, the luciferase activity was measured according to the directions for use of Dual-Luciferase Reporter Assay System (Promega). The response strength of the olfactory receptor was expressed by the Fold Increase value, which is obtained by dividing the luciferase activity generated by stimulation of the aroma compound by the luciferase activity generated in the test system not including the aroma compound. […]
With respect to unpleasant odor masking agents (group of candidate substances) including Group A shown in Table 1, the effects of suppressing the response of OR2L3 that strongly responded to unpleasant odors were measured by means of luciferase reporter gene assay.
In luciferase reporter gene assay, skatole and Guava coeur (Ethyl 3-mercapto-2-methylbutyrate) were used by being mixed with a sample. The Fold Increase value in the test in which Guava coeur was not mixed was regarded as 1, and the ratio of the Fold Increase value in the test in which Guava coeur was mixed was obtained.
Guava coeur in the evaluation of the effect of suppressing the response of OR2L3 was replaced by Dextramber® (1-(2,2,6-trimethylcyclohexyl) hexan-3-ol, registered trademark), and the test was conducted in the same manner. […] Similarly, Guava coeur was replaced by Hindinol® (2-methyl-4-(2,2,3-trimethyl-3-cyclopentenyl)-2-buten-1-ol, registered trademark) and the test was conducted.
Regarding the unpleasant odor in the evaluation of the effect of suppressing the response of OR2L3, skatole was replaced by indole, and the test was conducted in the same manner. […]

skatole odor = test: Sensory evaluation of unpleasant odor suppression ability (skatole), panel of 20 persons; format: in vivo, human; details: for Skatole strength: average rating of 20 persons, scale 0 to 10, unpleasant odor alone rated 8, 10 μL skatole diluted 100-fold plus 1 μL test substance, 1 hour at room temperature; for Effect of suppressing the unpleasant odors (in words): unpleasant odors = skatole or indole
Experimental: (§2) The unpleasant odor suppression ability of test substances having activity to inhibit receptor action was confirmed by sensory evaluation. A cotton ball on which 10 μL of skatole or indole diluted 100-fold with triethyl citrate as an unpleasant odor and 1 μL of a test substance were dropped was put into a plastic bottle (OZO-40 manufactured by Takemoto Yohki Co., Ltd.). The bottle was allowed to stand at room temperature for 1 hour to sufficiently volatilize odor molecules therein. The sensory evaluation test was conducted by a panel consisting of 20 persons, who made evaluation as follows: the odor strength in the case where the unpleasant odor was dropped solely was rated as 8, and the unpleasant odor strength in the case where the test substance was mixed was rated as from 0 (the unpleasant odor is not smelled) to 10 (the unpleasant odor is smelled very strongly). The average value was calculated from obtained numerical values.

indole odor = test: Sensory evaluation of unpleasant odor suppression ability (indole), panel of 20 persons; format: in vivo, human; details: for Indole strength: average rating of 20 persons, scale 0 to 10, unpleasant odor alone rated 8, 10 μL indole diluted 100-fold plus 1 μL test substance, 1 hour at room temperature
Experimental: as §2

[2] = tested on: HEK293T cells in which OR2L3 was not expressed (Mock); test: Mock test, luciferase reporter gene assay using cells in which OR2L3 was not expressed; format: cell-based, human
Experimental: as §1
(§3) After removing the culture medium, 50 μL of CD293 medium (gibco) (20 μM L-glutamine added) including measured concentration of an aroma compound as a sample was added to each well, and stimulation was performed for 3 hours. After that, the luciferase activity was measured according to the directions for use of Dual-Luciferase Reporter Assay System (Promega). The response strength of the olfactory receptor was expressed by the Fold Increase value, which is obtained by dividing the luciferase activity generated by stimulation of the aroma compound by the luciferase activity generated in the test system not including the aroma compound.
(§4) Responses of the olfactory receptor OR2L3 to skatole, indole, α-terpineol, 4-terpineol or p-methylacetophenone as a typical example of the unpleasant odor-causing substance were measured with various concentrations by means of luciferase reporter gene assay. […] Meanwhile, in the Mock test (using cells in which OR2L3 was not expressed), no response was shown. That is, it was shown that OR2L3 specifically responds to the respective unpleasant odor-causing substances.

olfactory receptor OR2L3 [3] = target: T1, olfactory receptor OR2L3; test: Luciferase reporter gene assay: response of olfactory receptor OR2L3 to unpleasant odor-causing substance; format: cell-based; details: various concentrations; HEK293T cells expressing OR2L3; FIGS. 1 to 5
Experimental: A human olfactory receptor gene was obtained by cloning according to the PCR method using Human Genomic DNA: Female (Promega) based on the sequence information registered in GenBank. The N-terminal 20 amino acid residues of bovine rhodopsin were incorporated into a pME18S vector, and the obtained human olfactory receptor gene was further incorporated downstream thereof, thereby obtaining a human olfactory receptor gene expression vector.
as §1, §3, §4

Row | Compound | Effect of suppressing the response of OR2L3 to skatole (olfactory receptor OR2L3 [1]) | Skatole strength (skatole odor) | Effect of suppressing the unpleasant odors (in words) (skatole odor; sensory evaluation) | Indole strength (indole odor) | Response in the Mock test [2] | Response of the olfactory receptor OR2L3 (Fold Increase) (olfactory receptor OR2L3 [3]) | other results
1 | CCOC(=O)C(C)C(C)S (stereo not shown) [Ethyl 3-mercapto-2-methylbutyrate] | concentration-dependently reducing | 3.0 | suppress | 3.3 | – | – | Effect of suppressing the response of OR2L3 to indole (olfactory receptor OR2L3 [1]): concentration-dependently reducing
2 | CC(c1ccccc1)C1CC1C(C)(C)O (stereo not shown) [Dimethyl-2-(1-phenylethyl)cyclopropylmethanol] | – | 2.5 | suppress | 2.4 | – | – | –
3 | Cc1c[nH]c2ccccc12 [skatole] | – | – | – | – | no response | concentration-dependent responses | –
4 | CCCCCCOC(=O)c1ccccc1O [Hexyl salicylate, hexyl salicylate, reference compound] | did not suppress | 6.9 | – | 6.7 | – | – | –
5 | CC/C=C\CCOC(=O)CCCCC [cis-3-hexenyl hexanoate, reference compound] | concentration-dependently reducing | – | – | – | – | – | –
6 | CCCC(O)CCC1C(C)CCCC1(C)C (stereo not shown) [1-(2,2,6-trimethylcyclohexyl)hexan-3-ol] | concentration-dependently reducing | 4.0 | suppress | 3.9 | – | – | Effect of suppressing the response of OR2L3 to indole (olfactory receptor OR2L3 [1]): concentration-dependently reducing
7 | CC(=CCC1CC=C(C)C1(C)C)CO (stereo not shown) [2-methyl-4-(2,2,3-trimethyl-3-cyclopentenyl)-2-buten-1-ol] | concentration-dependently reducing | 3.6 | suppress | 4.1 | – | – | Effect of suppressing the response of OR2L3 to indole (olfactory receptor OR2L3 [1]): concentration-dependently reducing
8 | CC1CCC(C(C)(C)S)C(=O)C1 (stereo not shown) [p-mentha-8-thio1-3-one, p-mentha-8-thiol-3-one] | – | 3.9 | suppress | 3.7 | – | – | –
9 | O=C1CCCC=CCCCCCCCCCC1 [5-cyclohexadecenone] | – | 4.2 | suppress | 3.6 | – | – | –
10 | CC(C)(C)C1CCC(O)CC1 (stereo not shown) [4-t-butyleyclohexanol, 4-t-butylcyclohexanol, reference compound] | did not suppress | 6.3 | – | 6.0 | – | – | –
11 | CC1=CCC(C(C)(C)O)CC1 (stereo not drawn) [α-terpineol] | – | – | – | – | no response | concentration-dependent responses | –
12 | c1ccc2[nH]ccc2c1 [indole] | – | – | – | – | no response | concentration-dependent responses | –
13 | CC(=O)c1ccc(C)cc1 [p-methylacetophenone] | – | – | – | – | no response | concentration-dependent responses | –
14 | Methyl fenchol | suppresses | 3.3 | – | 3.1 | – | – | Suppression of the strength of skatole odor (in words) (skatole odor; sensory evaluation): significantly suppressed; Suppression of the strength of indole odor (in words) (indole odor; sensory evaluation): suppressed
15 | CC1=CCC(O)(C(C)C)CC1 (stereo not shown) [4-terpineol] | – | – | – | – | no response | concentration-dependent responses | –

Source: US12268798B2, “Method for screening of unpleasant odor masking agents” (Takasago International Corporation, priority 2020, dated 2025)
